Laboratory results published in patent publication US10869926B2, “Suppression of myeloid derived suppressor cells and immune checkpoint blockade” (The Johns Hopkins University, priority 2014, dated 2020).
Values joined by “and” are separate entries in the source; they are usually repeats but may differ in a detail not shown here. Identical values can stand only once.

Experiments:
4T1 tumors = test: 4T1 primary tumors and metastatic lesions (metastasis analysis); assay type: in vivo, BALB/c mice; conditions: for metastases (in words) / primary tumors (in words): 4T1, sacrificed six weeks after tumor implantation; for Liver Mets / Lung Mets / Primary Tumor Vol (mm^3) / Spleen Mets: six weeks after tumor implantation
Protocol: Tumor volume was calculated as length×width×0.5.
On day 46 post-tumor implantations, 4T1 tumor bearing mice were euthanized according to the IACUC guidelines. Lungs, livers and spleens were harvested and fixed in 10% Neutral Buffered Formalin Solution (Sigma-Aldrich) and metastatic nodules were counted from at least three mice per group.

[1] = tested on: MHC-I, B2M and TAP1 genes in 4T1 cells; test: RT-PCR of genes involved in MHC-I presentation; assay type: cell-based, murine; conditions: 4T1 cells cultured in vitro
Protocol: (§1) 5×10^6 CT26 or 4T1 cells were resuspended in 0.75 ml Trizol LS Reagent (Invitrogen Life Technologies) and 0.25 ml chloroform (Sigma-Aldrich). Samples were vortexed for 15 seconds and incubated for 10 minutes at 20° C. […] Samples were centrifuged at 12000 g for 10 minutes at 4° C. after 10 minute incubation at 20° C. The resulting pellets were air dried for less than 10 minutes and were resuspended with RNAse-free water (Invitrogen Life Technologies) for a final concentration of 500 ng/μl. PCR was performed using SuperScript III One-Step RT-PCR System with Platinum Taq DNA Polymerase (Invitrogen Life Technologies). Annealing temperature was set at 55° C. for H-2D(d), β2m and TAP1, and set at 60° C. for β-actin. […] The following […] used for RT-PCR: H-2D(d) Forward [NT] (SEQ ID NO: 1), H-2D(d) Reverse [NT] ID NO: 2), β2m Forward [NT] ID NO: 3), β2m Reverse [NT] ID NO: 4), TAP1 Forward [NT] ID NO: 5), TAP1 Reverse [NT] ID NO: 6), β-actin Forward [NT] ID NO: 7), β-actin Reverse [NT] ID NO: 8).

[2] = tested on: MHC-I, B2M and TAP1 genes in CT26 cells; test: RT-PCR of genes involved in MHC-I presentation; assay type: cell-based, murine; conditions: CT26 cells cultured in vitro
Protocol: as §1

G-MDSCs [3] = test: In vitro survival assay (WST-1); assay type: cell-based, mouse; conditions: 24 hours, 0 to 50 μM
Source text: (§2) MDSCs from 4T1 tumor-bearing animals were isolated from spleens using Myeloid-Derived Suppressor Cell Isolation Kit, mouse (Miltenyi Biotec) and BD FACS Aria III cell sorter (BD Biosciences). CD8^+ cells were isolated from spleens of 4T1-bearing animals treated with anti-PD-1 and anti-CTLA-4 antibodies using CD8a^+ T Cell Isolation Kit II, mouse (Miltenyi Biotec) and BD FACS Aria III cell sorter (BD Biosciences). MDSC, Tregs, and CD8^+ T cells were isolated and cultured by following the manufacturer's protocols and published protocols (38, 39). The purity of G-MDSCs (CD11b^+Ly6G^+Ly6C^loF4/80^−MHC-II^−) and CD8^+ (CD3^+CD8^+) populations were greater than 95% as determined by flow cytometry, and the viability was greater than 95% for these populations as determined by trypan blue staining.
(§3) MDSCs and CD8^+ T cells were plated on 96-well plate at 2×10^6 cells/ml in RPMI1640 medium supplemented with 10% FBS. CD8^+ T cell cultures were supplemented with recombinant interleukin-2 (Invitrogen Life Technologies) at 2000 U/ml. […] The proportion of viable cells was assessed by incubating the cells with 10% (v/v) Cell Proliferation Reagent WST-1 (Roche Applied Science) for 3 hours at 37° C. and measuring OD450 absorbance of the resulting formazan products.

4T1 cells = test: In vitro survival assay (WST-1); assay type: cell-based, murine; conditions: 24 hours, 0 to 50 μM
Protocol: 4T1 (CRL-2539, murine breast tumor cells) and CT26 (CRL-2638, murine colorectal adenocarcinoma) were purchased from ATCC. Both tumor cell lines were grown in McCoy's 5A supplemented with 10% Fetal Bovine Serum at 37° C., 5% CO2.
MDSCs and CD8^+ T cells were plated on 96-well plate at 2×10^6 cells/ml in RPMI1640 medium supplemented with 10% FBS. CD8^+ T cell cultures were supplemented with recombinant interleukin-2 (Invitrogen Life Technologies) at 2000 U/ml. 4T1 cells in McCoy 5A supplemented with 10% FBS were plated on 96-well plate and cultured until they reached >70% confluency. Cells were cultured with entinostat, 5-azacytidine, or J32 at concentrations ranging from 0 μM to 50 μM for 24 hours at 37° C., 5% CO2. The proportion of viable cells was assessed by incubating the cells with 10% (v/v) Cell Proliferation Reagent WST-1 (Roche Applied Science) for 3 hours at 37° C. and measuring OD450 absorbance of the resulting formazan products.

G-MDSCs [4] = test: Flow cytometry of G-MDSCs in 4T1 tumor-bearing mice; assay type: in vivo, BALB/c mice; conditions: added to / in combination with PD-1/CTLA-4 inhibition
Source text: The following antibodies and reagents were used for flow cytometry: CD16/32 (BD Biosciences), CD3e Alexa Fluor 488 (14-C11; BD Biosciences), CD4 Brilliant Violet 421 (GK1.5, BD Biosciences), CD8a PerCP-Cy5.5 (53-6.7, BD Biosciences), CD25 PE (PC61, BD Biosciences), Foxp3 Alexa Fluor 647 (MF23, BD Biosciences), CD11b Alexa Fluor 700 (M1/70, BD Biosciences), I-A/I-E Alexa Fluor 488 (M5/114.15.2, BD Biosciences), Ly-6C PerCP-Cy5.5 (AL-21, BD Biosciences), CD11c PE (HL3, BD Biosciences), F4/80 APC (BM8, Biolegend), Ly-6G Pacific Blue (1A8, Biolegend), CD45 Pacific Orange (30-F11, Invitrogen Life Technologies), and Live/Dead Fixable Near IR Dead Cell Stain (Invitrogen Life Technologies). Flow cytometry was performed with LSR II (BD Biosciences) and the data was analyzed with FACS Diva software (BD Biosciences). To assess the level of circulating G-MDSC population, blood samples were collected from the mice 7 days after the initiation of the anti-PD-1/anti-CTLA-4 antibody treatments with or without 5-AZA/Entinostat. […] CD8^+ T cell level was assessed using previously established phenotypic criteria of CD45^+CD3^+CD8^+ and total CD45^+CD3^+ cells was used as a common denominator. Treg cell level was assessed using previously established phenotypic criteria of CD45^+CD3^+CD4^+CD25^+FoxP3^+ and total CD45^+CD3^+CD4^+ cells were used as a common denominator.

CD8+ T cells = test: In vitro survival assay (WST-1); assay type: cell-based, mouse; conditions: 24 hours, 0 to 50 μM
Source text: as §2, §3

[5] = tested on: IFN-γ secretion in co-cultures of G-MDSCs and CD8+ T cells; test: IFN-γ assay in G-MDSC / CD8+ T cell co-cultures (ELISA); assay type: cell-based, mouse; conditions: G-MDSC to CD8+ T cell ratio 1:1, 24 hours, 0 to 0.25 μM
Protocol: Freshly isolated MDSCs and CD8^+ T cells from 4T1 tumor-bearing animals were cultured at MDSC to CD8^+ T cell ratios of 5:1, 2:1, 1:1, 1:2, and 1:5 in presence of recombinant IL-2 (Invitrogen Life Technologies) at 2000 U/mL and CD3/CD28 antibody coated beads (Miltenyi). MDSC and CD8^+ T cells were cultured at 1:1 ratio with entinostat at concentrations ranging from 0 μM to 0.25 μM. Cell-free supernatants were collected after 24-hour incubation at 37° C. and IFN-γ levels were assayed using Mouse IFN-γ DuoSet Elisa Development Kit (R&D Systems) according to the manufacturer's instruction.

[6] = mouse, in vivo
Protocol: Body weight measurements. BALB/c mice bearing 4T1 tumors were treated with indicated therapeutic modalities. Their body weights were measured and recorded regularly after treatments. Means and standard deviations of data are shown.
Six to eight weeks old female BALB/C mice (Harlan Laboratories) were used for all animal experiments. 5×10^6 4 T1 tumor cells or 5×10^6 CT26 tumor cells were inoculated subcutaneously into the right flank of each mouse. Tumors were allowed to grow for 11 days prior to randomization and treatment. CT26 bearing mice were given 10 mg/kg of anti-PD-1 and/or anti-CTLA-4 antibodies intraperitoneally on day 11, 13, 15, 17, 20, 23 and 26 post-tumor implantations and 4T1 bearing mice were given 10 mg/kg anti-PD-1 and/or anti-CTLA-4 antibodies intraperitoneally on day 11, 13, 15, and 17 post-tumor implantations. 4T1 tumor bearing mice were given a single dose of 10 mg/kg anti-CD25 antibody or 10 mg/kg anti-Ly6G antibody intraperitoneally on day 12 post-tumor implantation for cell depletion studies. All antibodies were diluted to appropriate concentrations in 100 μl sterile PBS, pH 7.4 (Invitrogen Life Technologies). […] 4T1 bearing mice were injected intraperitoneally on day 12, 14, 16, and 18. […] Tumor volume was calculated as length×width×0.5.

[7] = individual mouse, listed as ENT

SMILES	metastases (in words) (4T1 tumors)	primary tumors (in words) (4T1 tumors)	Liver Mets (4T1 tumors; AVERAGE of group)	Lung Mets (4T1 tumors; AVERAGE of group)	Primary Tumor Vol (mm^3) (4T1 tumors; AVERAGE of group)	Spleen Mets (4T1 tumors; AVERAGE of group)	expression of MHC-I, B2M and TAP1 genes [1]	expression of MHC-I, B2M and TAP1 genes [2]	cell viability (G-MDSCs [3])	cell viability (4T1 cells)	other results
Nc1ncn([C@@H]2O[C@H](CO)[C@@H](O)[C@H]2O)c(=O)n1 [AZA, 5-azacytidine]	unable to eradicate either primary tumor or metastasis	unable to eradicate either primary tumor or metastasis	12	17	2750	1	did not significantly increase the expression	did not significantly increase the expression	no effect at comparable concentrations	unresponsive	Liver Mets (4T1 tumors; individual mouse): 0 (3×) and 43 and 16; Lung Mets (4T1 tumors; individual mouse): 20 (2×) and 16 and 17 and 14; Primary Tumor Vol (mm^3) (4T1 tumors; individual mouse): 2345 mm^3 and 2454 mm^3 and 2477 mm^3 and 4358 mm^3 and 2117 mm^3; Spleen Mets (4T1 tumors; individual mouse): 0 (3×) and 3 and 1
Nc1ccccc1NC(=O)c1ccc(CNC(=O)OCc2cccnc2)cc1 [entinostat]	unable to eradicate either primary tumor or metastasis	unable to eradicate either primary tumor or metastasis	4	17	3483	1	did not significantly increase the expression	did not significantly increase the expression	markedly reduced viability	unresponsive	Liver Mets (4T1 tumors; [7]): 10 and 3 and 0 (2×) and 6; Lung Mets (4T1 tumors; [7]): 25 and 20 (2×) and 0 and 22; Primary Tumor Vol (mm^3) (4T1 tumors; [7]): 3005 mm^3 and 5038 mm^3 and 2275 mm^3 and 3063 mm^3 and 4032 mm^3; Spleen Mets (4T1 tumors; [7]): 1 and 0 (3×) and 3; number of circulating G-MDSCs (G-MDSCs [4]): striking reduction in the number of circulating G-MDSCs; cell viability (CD8+ T cells): only modest effects; IFN-γ secretion inhibited by G-MDSCs [5]: reversed the inhibition in a dose-dependent manner; toxicity as indicated by body weight changes [6]: Temporary self-limiting toxicity
